Experimental data from patent US7659277B2, “Ubiquitin ligase inhibitors and methods related thereto” (Proteologies, Ltd., priority 2003, dated 2010).

Legend:
POSH = molecular target: T1, POSH (Homo sapiens, UniProt Q7Z6J0); assay: IC50 assay procedure: GST-POSH auto-ubiquitination, homogeneous time-resolved fluorescence (Ub-cryptate / anti-GST XL665); assay type: biochemical; conditions: ubiquitin ligase activity of POSH; GST-POSH 33 nM, 30 min preincubation
T1 construct: GST-POSH lot NB81/p.118 3.6 mg/ml; fused on or other part: GST tag, used for detection with anti-GST XL665
T1 sequence (Q7Z6J0 1-269 limits assumed): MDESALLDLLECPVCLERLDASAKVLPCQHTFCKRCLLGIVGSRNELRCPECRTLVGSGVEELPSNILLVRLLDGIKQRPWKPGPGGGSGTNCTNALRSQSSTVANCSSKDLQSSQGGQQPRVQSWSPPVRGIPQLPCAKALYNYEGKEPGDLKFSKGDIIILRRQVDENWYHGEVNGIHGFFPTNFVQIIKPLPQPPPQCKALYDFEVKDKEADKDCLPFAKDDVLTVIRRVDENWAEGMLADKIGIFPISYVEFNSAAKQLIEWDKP
Text: In certain preferred embodiments, agents that inhibit (or promote) the ubiquitin ligase activity of a ubiquitin ligase, such as POSH, may be identified using a homogenous time resolved fluorescence assay. Such an assay may employ a GST fused to the RING subunit of a ubiquitin ligase (e.g. POSH). Two flurophore-conjugated detection reagents are also used: anti-GSTXL665 and europium cryptate labeled ubiqutin. The ubiqutination of the ubiquitin ligase by ubiqutin cryptate and binding of the anti-GST tagged XL665 brings the fluorophores into close proximity allowing FRET reaction to occur. Accordingly, FRET serves as a measurement of ubiquitination of the ubiquitin ligase. An enzymatic system may be set up to provide activated ubiquitin, e.g., by providing ubiquitin, an E1 and an E2. Compounds that will not allow the FRET reaction are considered to be inhibitors.
Step 3: establish IC 50 value measurements.
Experimental Protocols: 1. HTS Screening Assay Procedure • Microplates 10109D to 10114D compounds at 1 mM. • (Controls in column 1). • All compounds were perchase from ChemBridge corporation: ChemBridge corporation 16981 Via Tazon, Suite G San Diego, Calif. 92127 a. Microplates Labeling • Put labels to 6 PS U-bottom clear microplate. • Put labels to 18 black microplates (triplicats). b. Microplates Preparation • Put 100 μl GST-POSH at 33 nM in wells of the clear PS U-bottom microplates (exept wells A1-D1). • Negative control: place 100 μl dH2O in wells A1-D1. • (Positive control: place 100 μl GST-POSH at 33 nM in wells E1-H1). • Put 8 μl enzymes solution ×4 to black microplates (column 1 to 11). c. Incubation of E3 with Compounds • Transfer 5 μl of compounds (at 1 mM) to the microplates containing 100 μl GST-POSH. • Add 5 μl of DMSO to controls column 1. • Incubation 30 minutes at RT. d. Enzymatic (Ubiquitination) and Final Steps • Distribution of (triplicate) 3×23 μl incubated compounds into 3 black microplates containing enzymatic solution (on splitting apparatus). • Incubation 30 minutes at 37° C. • Addition of 8 μl EDTA 0.5 M. • Incubation 15 (at least) minutes at RT. • Addition of 30 μl GST XL 665 in reconstitution buffer. • Incubation 45 (at least) minutes at RT. • Reading fluorescence. • Record results in computer. • Put sealing foil back on original and diluted microplates and keep at −70° C. • Always the plates must be closed with lids during each step. 2. […] Microplates Labeling • Put labels to 4 clear PP clear microplate (18.2 μM, 9.1 uM, 1.82 uM, 910 nM,). • Put labels to 5 clear PS U-bottom clear microplate 4.44 μM, 909, 444, 91 and 44 nM) • Put labels to 15 black microplates (triplicates). f. Original Microplate Dilutions • Put DMSO 40 μl to (18.2 μM, 1.82 uM plates) and 20 ul to (9.1 uM, 910 nM plates. • Mix by pipetation the original microplate (3× up and down 45 μl). • Transfer 10 μl of compounds from the original microplate (at 91 μM) to the next microplate (=18.2 μM) on splitting apparatus. • Mix by pipetation the 18.2 uM microplate (3× up and down 45 μl). • Transfer 20 μl of compounds from the 18.2 uM microplate to the next microplate (=9.1 μM) on splitting apparatus. • Mix by pipetation the 9.1 uM microplate (3× up and down 45 μl). • Transfer 10 μl of compounds from the 9.1 uM microplate to the next microplate (=1.82 μM) on splitting apparatus. • Mix by pipetation the 1.82 uM microplate (3× up and down 45 μl). • Transfer 20 μl of compounds from the 1.82 uM microplate to the next microplate (=910 nM) on splitting apparatus • Mix by pipetation. g. Microplates Preparation • Put 123 μl GST-POSH at 33 nM in wells of the 5 clear PS U-bottom clear microplates. • Positive control: place 123 μl GST-POSH at 33 nM in well A12-h12 13 μl DMSO. • Negative control: place 123 μl dH2O in well B1 and 13 μl DMSO. • Put 8 μl enzymes solution ×4 to 15 black microplates. • Controls: put 8 μl enzymes solution ×4 to wells A1 to F1. h. […]

HIV-1 = assay: HIV maturation (budding) in virus-like particle assay, HIV-1 p24 antigen ELISA; assay type: cell-based; conditions: Human immunodeficiency virus 1, read-out: Budding (3 μM)
Text: Compounds were further assessed for effects on maturation of HIV particles in a virus-like particle assay.

| IC50 (POSH) | Structure (SMILES) | activity at 3 µM (HIV-1) |
| --- | --- | --- |
| 2 µM | CC(=C\c1ccccc1)/C=C1/NC(=S)NC1=O [Compound 30] | – |
| 1 µM | Cc1c(Br)c(=O)oc2c(Br)c(O)c(O)cc12 [Compound 83] | – |
| 0.65 µM | O=C1/C(=C\c2cc(Cl)ccc2O)Sc2ccccc21 [Compound 44] | – |

| Structure (SMILES) | IC50 (POSH) | activity at 3 µM (HIV-1) |
| --- | --- | --- |
| CCCOC(=O)c1ccc(/N=C/c2c(O)ccc3ccccc23)cc1 [Compound 69] | 0.7 µM | 41% |
| CC(C)(C)c1ccc(C2=N/C(=C\c3cccs3)C(=O)O2)cc1 [Compound 48] | 1.3 µM | 58% |
